Our source for the IC50 values is ChEMBL document CHEMBL1145638, “Discovery of a novel submicromolar inhibitor of the lymphoid specific tyrosine phosphatase” (Bioorg Med Chem Lett, 2008).

For the assay, the target named is T1, Tyrosine-protein phosphatase non-receptor type 22 (Homo sapiens, UniProt Q9Y2R2).
T1 sequence (Q9Y2R2 whole entry): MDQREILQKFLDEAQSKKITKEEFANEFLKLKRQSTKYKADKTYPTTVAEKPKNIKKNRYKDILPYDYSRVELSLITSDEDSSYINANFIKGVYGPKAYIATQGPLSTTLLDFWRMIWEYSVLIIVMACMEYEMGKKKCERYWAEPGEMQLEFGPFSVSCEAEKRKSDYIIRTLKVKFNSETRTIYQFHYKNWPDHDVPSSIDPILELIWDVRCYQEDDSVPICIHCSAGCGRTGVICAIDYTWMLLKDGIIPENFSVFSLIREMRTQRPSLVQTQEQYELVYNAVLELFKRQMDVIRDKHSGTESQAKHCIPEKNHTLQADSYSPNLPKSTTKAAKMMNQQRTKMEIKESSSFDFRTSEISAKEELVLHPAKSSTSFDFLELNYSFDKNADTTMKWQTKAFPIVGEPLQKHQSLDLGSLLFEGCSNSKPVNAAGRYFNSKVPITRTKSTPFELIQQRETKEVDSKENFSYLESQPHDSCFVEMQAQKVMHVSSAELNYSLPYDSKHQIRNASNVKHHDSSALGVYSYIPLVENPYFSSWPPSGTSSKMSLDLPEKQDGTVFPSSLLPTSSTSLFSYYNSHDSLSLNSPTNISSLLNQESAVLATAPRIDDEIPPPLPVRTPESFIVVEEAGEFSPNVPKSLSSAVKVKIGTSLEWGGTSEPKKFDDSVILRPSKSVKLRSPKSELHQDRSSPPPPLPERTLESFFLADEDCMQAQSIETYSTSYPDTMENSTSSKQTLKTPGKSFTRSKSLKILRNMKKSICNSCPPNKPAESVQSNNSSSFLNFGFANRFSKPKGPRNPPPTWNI
The experiment in a line: Inhibition of lymphoid specific tyrosine phosphatase.
With `O=C(O)CCN1C(=O)/C(=C\c2ccc(-c3nc4ccccc4s3)o2)SC1=S`, the IC50 was determined as 0.98 µM.
The figure for `Cc1ccc(NC(=O)CN2C(=O)S/C(=C\c3ccc(-c4cccc(C(=O)O)c4C)o3)C2=O)cc1` (stereo in doubt; form 2) is 3.5 µM.
As to `Cc1cccc(C)c1NC(=O)CN1C(=O)S/C(=C\c2cccn2-c2cccc(C(=O)O)c2)C1=O`, half-maximal inhibition (IC50) was put at 4.8 µM.
Regarding `COC(=O)CCN1C(=O)S/C(=C\c2ccc(-c3ccc(O)c(C(=O)OC)c3)o2)C1=O`, it took 44 µM to reach half-maximal inhibition (IC50).
Regarding `CC(C(=O)O)N1C(=O)/C(=C/C=C/c2ccco2)SC1=S` (stereo not given), the IC50 worked out at 2.5 µM.
In the case of `O=C(O)CN1C(=O)S/C(=C\c2ccc(-c3ccc(O)c(C(=O)O)c3)o2)C1=O` it was 5.6 µM; in that of `O=C(O)CN1C(=O)S/C(=C\c2ccc(-c3ccc(O)c(C(=O)O)c3)s2)C1=O`, 2.8 µM; in that of `COC(=O)c1cc(-c2ccc(/C=C3\SC(=O)N(CC(=O)O)C3=O)o2)ccc1O`, greater than 44 µM.
The figure for `COC(=O)CN1C(=O)S/C(=C\c2ccc(-c3ccc(O)c(C(=O)O)c3)s2)C1=O` is 1.8 µM.
In the case of `O=C(O)C(Cc1ccccc1)N1C(=O)/C(=C/C2=c3ccccc3=CCC2)SC1=S` (stereo not given) it was 14 µM; in that of `COC(=O)c1cc(-c2ccc(/C=N/N3CC(=O)NC3=O)o2)ccc1O`, greater than 44 µM; in that of `COC(=O)c1cc(-c2ccc(/C=C3\SC(=O)N(CCC(=O)O)C3=O)o2)ccc1O`, 4.3 µM.
`CC(C)C(C(=O)O)N1C(=O)/C(=C/C=C/c2ccco2)SC1=S` (stereo not given) gave an IC50 of 1.9 µM.
For `O=C1CN(/N=C/c2ccc(-c3ccc(O)c(C(=O)O)c3)o2)C(=O)N1`, the IC50 was greater than 44 µM.
The figure for `O=C(O)CN1C(=O)/C(=C/c2ccc(-c3ccc(O)c(C(=O)O)c3)o2)SC1=S` is 8.7 µM; for `O=C(O)CCN1C(=O)S/C(=C\c2ccc(-c3ccc(O)c(C(=O)O)c3)o2)C1=O` it is 5.1 µM; for `O=C(O)CN1C(=O)CN(/N=C/c2ccc(-c3ccc(O)c(C(=O)O)c3)s2)C1=O` it is greater than 44 µM.
Compound `O=C(O)CN1C(=O)/C(=C/c2ccc(-c3ccc(O)c(C(=O)O)c3)s2)SC1=S` registered an IC50 of 5.4 µM.
The figure for `COC(=O)c1cc(-c2ccc(/C=C3\SC(=O)N(CCC(=O)O)C3=O)s2)ccc1O` is 0.39 µM.
In the case of `O=C(O)CCCN1C(=O)/C(=C\c2ccc(-c3nc4ccccc4s3)o2)SC1=S` it was 1.3 µM.
The figure for `O=C(O)CCN1C(=O)S/C(=C\c2ccc(-c3ccc(O)c(C(=O)O)c3)s2)C1=O` is 5.9 µM.
The compound `COC(=O)c1cc(-c2ccc(/C=C3\SC(=S)N(CC(=O)O)C3=O)o2)ccc1O` gave a 50% inhibitory concentration (IC50) of 21 µM.
In the case of `Cc1ccccc1NC(=O)CN1C(=O)S/C(=C\c2cccn2-c2cccc(C(=O)O)c2)C1=O` it was 1.9 µM; in that of `Cc1ccc(NC(=O)CN2C(=O)S/C(=C\c3cccn3-c3cccc(C(=O)O)c3)C2=O)c(C)c1`, 1 µM.
The compound `O=C(O)COc1ccc(-c2ccc(/C=C3\SC(=S)N(CC(=O)O)C3=O)o2)cc1C(=O)O` registered an IC50 greater than 44 µM.
The figure for `COC(=O)CN1C(=O)S/C(=C\c2ccc(-c3ccc(O)c(C(=O)OC)c3)s2)C1=O` is greater than 44 µM; for `O=C(O)CN1C(=O)CN(/N=C/c2ccc(-c3ccc(O)c(C(=O)O)c3)o2)C1=O` it is 36 µM.
Take `COC(=O)CN1C(=O)S/C(=C\c2ccc(-c3ccc(O)c(C(=O)O)c3)o2)C1=O`: inhibition was half-maximal at 4.8 µM (IC50).
On to `COC(=O)CN1C(=O)S/C(=C\c2ccc(-c3ccc(O)c(C(=O)OC)c3)o2)C1=O`, for which the IC50 was greater than 44 µM.
In the case of `Cc1ccc(NC(=O)CN2C(=O)S/C(=C\c3ccc(-c4cccc(C(=O)O)c4C)o3)C2=O)cc1` (stereo in doubt; form 1) it was 3.3 µM.
In the case of `COC(=O)CCN1C(=O)S/C(=C\c2ccc(-c3ccc(O)c(C(=O)OC)c3)s2)C1=O` it was greater than 44 µM; in that of `COC(=O)c1cc(-c2ccc(/C=N/N3CC(=O)NC3=O)s2)ccc1O`, greater than 44 µM.
The figure for `COC(=O)c1cc(-c2ccc(/C=C3\SC(=S)N(CC(=O)O)C3=O)s2)ccc1O` is 4.3 µM; for `COC(=O)c1cc(-c2ccc(/C=C3\SC(=O)N(CC(=O)O)C3=O)s2)ccc1O` it is 18 µM.
On to `O=C1CN(/N=C/c2ccc(-c3ccc(O)c(C(=O)O)c3)s2)C(=O)N1`, for which half-maximal inhibition (IC50) was put at 34 µM.
